In PubChem BioAssay AID2060902 (Molecular Pharmacology Branch, DTP, NCI, 2025):

Test system: 485368-065-R3-J5-PDC spheroids with HUVEC/MSC, viability
Assay: Anticancer human tumor 485368-065-R3-J5-PDC patient-derived pancreatic carcinoma cell line growth inhibition [RAS]
Details: for IC50: curve of first compound; for viability, T/C: stronger effect = lower value
From the text: RAS pathway inhibitors in Combinations in Complex Spheroids
A high-throughput screen of multi-cell type tumor spheroids was designed to identify active combinations of RAS pathway inhibitors and targeted small molecules. Complex spheroids include a stromal component modeled by human endothelial cells (HUVEC) and fibroblasts modeled by human mesenchymal stem cells (MSCs). The concentration ranges selected for each drug and investigational agent were based upon clinically achievable concentrations if the clinical Cmax of the agent was known.
Compounds. The drugs and investigational agents: abemaciclib (NSC768073), cobimetinib (NSC768068), divarasib (GDC6063, NSC841802), docetaxel (NSC628503), GDC-1971 (RLY-1971, NSC841576), gemcitabine (NSC613327), inavolisib (NSC800729), ipatasertib (NSC767898), KB-0742 (NSC834161), MRTX-1133 (NSC836407), osimertinib (NSC779217), RMC-4630 (NSC839698), RMC-6236 (NSC851965), RMC-6291 (NSC852671), Ro-3306 (NSC812927), sapanisertib (NSC764658), SN-38 (NSC673596), staurosporine (NSC755774), SY5609 (NSC837396), and tovorafenib (DAY101, NSC766906), were obtained from the National Cancer Institute (NCI) Developmental Therapeutics Program Chemical Repository. The FDA-approved anticancer drug set is available from the NCI Developmental Therapeutics Program. […] The stock solutions were prepared in dimethyl sulfoxide (DMSO, Sigma-Aldrich, St. Louis, MO, cat. D2650) at 800-fold the tested concentration and stored at -70 degrees C prior to their use. All drugs and investigational agents were tested over a range starting from a high concentration at or near the clinical Cmax and decreasing in half-log increments. If the clinical Cmax for an agent had not been determined, the highest concentration tested was 10 microM.
Cell Culture. All cells were maintained in an incubator at 37 degrees C and 5% CO2 with 95% humidity. The PDC lines were cultured according to standard operating procedures established by the NCI PDMR. All PDCs were thawed and cultured in Matrigel-coated flasks prepared with a working solution of 1X Ham's F-12 nutrient mix, without supplementation (Invitrogen, Waltham, MA, cat. 11765054), 100 U/mL penicillin-streptomycin (Invitrogen, cat. 15140122), and 2.5% Matrigel (Corning Inc., Corning, NY, cat. 354248) for the first three passages. The 362531-283-R-J2-PDC and 782815-120-R-J1-PDC lines were cultured in 6C/Colon 1B media, which includes advanced DMEM/F-12 (Thermo Fisher Scientific, cat. 12634028), 10 mM HEPES (Thermo Fisher Scientific, cat. 15630080), 1X GlutaMAX supplement (Thermo Fisher Scientific, cat. 35050061), 0.1 mg/mL primocin (InvivoGen, San Diego, CA, cat. ant-pm-2), 10% defined fetal bovine serum, heat inactivated (HyClone Laboratories Inc., Logan, UT, cat. SH30070.03HI), 50% L-WRN conditioned media (ATCC, cat. CRL-3276), 1.25 mM N-Acetyl-L-cysteine (Sigma-Aldrich, cat. A9165), 10 mM nicotinamide (Sigma-Aldrich, cat. N0636), 1X B-27 supplement (Thermo Fisher Scientific, cat. 17504044), 1X N-2 supplement (Thermo Fisher Scientific, cat. 17502048), 50 ng/mL human EGF (Thermo Fisher Scientific, cat. PHG0311), and 10 microM Y-27632 dihydrochloride (Tocris Bioscience, cat. 1254). The K12877-001-R-J1-PDC line was cultured in 6I media, which includes all 6C/Colon 1B media plus 10 ng/mL human FGF-10 (PeproTech, cat. 100-26), 1 ng/mL human FGF-2 (PeproTech, cat. 100-18B), 1 µM prostaglandin E2 (Tocris Bioscience, cat. 2296), […] hydrocortisone (Sigma-Aldrich, cat. H4001), and […] bovine insulin (Sigma-Aldrich, cat. I6634). The K86415-001-R-J1-PDC line was cultured in 6D media, which includes all 6C/Colon 1B media components minus the L-WRN conditioned media. The 485176-168-R4-J1-PDC was cultured in PANC media, which includes all 6C/Colon 1B media plus 100 ng/mL human FGF-10 (PeproTech, cat. 100-26), 500 nM SB-431542 (Selleckchem, cat. S1067), and 10 nM gastrin (Tocris Bioscience, cat. 3006). […]
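Also: spheroids exposed to agents for seven days before readout.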

**Q.** For C=CC(=O)Nc1cc(Nc2nccc(-c3cn(C)c4ccccc34)n2)c(OC)cc1N(C)CCN(C)C + C#Cc1c(F)ccc2cc(O)cc(-c3ncc4c(N5CC6CCC(C5)N6)nc(OCC56CCCN5CC(F)C6)nc4c3F)c12, which IC50 (second compound 0.0316 µM) is on record?
**A.** > 1000 nM

**Q.** What about the IC50 (second compound 0.1 µM) of the same compound?
**A.** > 1000 nM

**Q.** What about the IC50 (second compound 0.316 µM) of the same compound?
**A.** > 1000 nM

**Q.** What about the IC50 (second compound 1 µM) of the same compound?
**A.** > 1000 nM

**Q.** And the IC50 (second compound 3.16 µM)?
**A.** > 1000 nM

**Q.** And the IC50 (second compound 10 µM)?
**A.** < 3.16 nM

**Q.** What about the viability, T/C (second compound 0.0316 µM, first compound 0.00316 µM) of the same compound?
**A.** 103%

**Q.** What about the viability, T/C (second compound 0.0316 µM, first compound 0.01 µM) of the same compound?
**A.** 101%

**Q.** And the viability, T/C (second compound 0.0316 µM, first compound 0.0316 µM)?
**A.** 106%

**Q.** What about the viability, T/C (second compound 0.0316 µM, first compound 0.1 µM) of the same compound?
**A.** 104%

**Q.** And the viability, T/C (second compound 0.0316 µM, first compound 0.316 µM)?
**A.** 101%

**Q.** And the viability, T/C (second compound 0.0316 µM, first compound 1 µM)?
**A.** 89.7%

**Q.** What about the viability, T/C (second compound 0.1 µM, first compound 0.00316 µM) of the same compound?
**A.** 97%

**Q.** And the viability, T/C (second compound 0.1 µM, first compound 0.01 µM)?
**A.** 95.8%

**Q.** And the viability, T/C (second compound 0.1 µM, first compound 0.0316 µM)?
**A.** 95.8%

**Q.** And the viability, T/C (second compound 0.1 µM, first compound 0.1 µM)?
**A.** 108%

**Q.** And the viability, T/C (second compound 0.1 µM, first compound 0.316 µM)?
**A.** 108%

**Q.** What about the viability, T/C (second compound 0.1 µM, first compound 1 µM) of the same compound?
**A.** 96.2%

**Q.** What about the viability, T/C (second compound 0.316 µM, first compound 0.00316 µM) of the same compound?
**A.** 107%

**Q.** And the viability, T/C (second compound 0.316 µM, first compound 0.01 µM)?
**A.** 97.3%

**Q.** What about the viability, T/C (second compound 0.316 µM, first compound 0.0316 µM) of the same compound?
**A.** 96.1%

**Q.** And the viability, T/C (second compound 0.316 µM, first compound 0.1 µM)?
**A.** 103%

**Q.** What about the viability, T/C (second compound 0.316 µM, first compound 0.316 µM) of the same compound?
**A.** 101%

**Q.** And the viability, T/C (second compound 0.316 µM, first compound 1 µM)?
**A.** 85.5%

**Q.** And the viability, T/C (second compound 1 µM, first compound 0.00316 µM)?
**A.** 106%

**Q.** What about the viability, T/C (second compound 1 µM, first compound 0.01 µM) of the same compound?
**A.** 98.9%

**Q.** What about the viability, T/C (second compound 1 µM, first compound 0.0316 µM) of the same compound?
**A.** 100%

**Q.** And the viability, T/C (second compound 1 µM, first compound 0.1 µM)?
**A.** 97.3%

**Q.** What about the viability, T/C (second compound 1 µM, first compound 0.316 µM) of the same compound?
**A.** 83.3%

**Q.** What about the viability, T/C (second compound 1 µM, first compound 1 µM) of the same compound?
**A.** 74.6%

**Q.** What about the viability, T/C (second compound 3.16 µM, first compound 0.00316 µM) of the same compound?
**A.** 78%

**Q.** What about the viability, T/C (second compound 3.16 µM, first compound 0.01 µM) of the same compound?
**A.** 83.6%

**Q.** And the viability, T/C (second compound 3.16 µM, first compound 0.0316 µM)?
**A.** 72.4%

**Q.** And the viability, T/C (second compound 3.16 µM, first compound 0.1 µM)?
**A.** 67.6%

**Q.** What about the viability, T/C (second compound 3.16 µM, first compound 0.316 µM) of the same compound?
**A.** 63.3%

**Q.** What about the viability, T/C (second compound 3.16 µM, first compound 1 µM) of the same compound?
**A.** 49.8%

**Q.** And the viability, T/C (second compound 10 µM, first compound 0.00316 µM)?
**A.** 48%

**Q.** And the viability, T/C (second compound 10 µM, first compound 0.01 µM)?
**A.** 43.7%

**Q.** And the viability, T/C (second compound 10 µM, first compound 0.0316 µM)?
**A.** 37%

**Q.** And the viability, T/C (second compound 10 µM, first compound 0.1 µM)?
**A.** 37.3%

**Q.** And the viability, T/C (second compound 10 µM, first compound 0.316 µM)?
**A.** 28.6%

**Q.** And the viability, T/C (second compound 10 µM, first compound 1 µM)?
**A.** 30.1%
